Assay results as given in patent US8193191B2, “Urotensin II receptor antagonists” (Janssen Pharmaceutica N.V., priority 2006, dated 2012).
Read-outs that look alike come from different tables or passages of the source.

How the values were obtained:
[1] = target: T1, rat GPR14 (U-II receptor) (Rattus norvegicus, UniProt P49684); experiment: Rat UII Calcium Mobilization FLIPR Assay; format: cell-based; conditions: average value for the compound tested; read-out: Rat UII FLIPR Average IC50
T1 construct: expressed in transfected cells
T1 sequence (P49684 1-386): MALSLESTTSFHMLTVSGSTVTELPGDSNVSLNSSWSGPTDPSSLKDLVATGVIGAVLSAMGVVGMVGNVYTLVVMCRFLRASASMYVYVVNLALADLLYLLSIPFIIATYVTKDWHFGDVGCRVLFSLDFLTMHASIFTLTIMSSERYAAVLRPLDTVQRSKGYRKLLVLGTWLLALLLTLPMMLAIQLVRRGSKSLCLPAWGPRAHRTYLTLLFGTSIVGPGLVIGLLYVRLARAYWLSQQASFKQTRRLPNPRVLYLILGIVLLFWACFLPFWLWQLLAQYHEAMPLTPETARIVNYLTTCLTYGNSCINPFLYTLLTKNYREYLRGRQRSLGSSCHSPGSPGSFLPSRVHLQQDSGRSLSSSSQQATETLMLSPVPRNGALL
Summary of the method: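 Fluorescent calcium signals were recorded at room temperature (23° C) by FLIPR. Stable rat U-II receptor CHO lines had been dye-loaded for 1 h at 37° C in pH 7.4 HBSS containing 20 mM HEPES, 0.1% BSA and 2.5 mM probenecid.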

[2] = target: T2, endogenous human UII receptor (Homo sapiens, UniProt Q9UKP6); experiment: Human Radioligand Binding Assay ((^125I)-U-II binding to human skeletal muscle myoblasts)
T2 sequence (Q9UKP6 1-389): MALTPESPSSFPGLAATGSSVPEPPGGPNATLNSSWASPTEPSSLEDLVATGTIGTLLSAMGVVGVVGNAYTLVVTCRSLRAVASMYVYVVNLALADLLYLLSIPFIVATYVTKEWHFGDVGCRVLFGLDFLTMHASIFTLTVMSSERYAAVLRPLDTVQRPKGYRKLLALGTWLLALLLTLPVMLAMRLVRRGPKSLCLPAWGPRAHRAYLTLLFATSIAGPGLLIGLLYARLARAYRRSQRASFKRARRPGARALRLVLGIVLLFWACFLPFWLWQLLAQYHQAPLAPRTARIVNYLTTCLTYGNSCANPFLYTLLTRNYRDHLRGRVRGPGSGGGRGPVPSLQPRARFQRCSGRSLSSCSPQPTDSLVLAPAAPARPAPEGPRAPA

[3] = target: T3, Human UII receptor, 6D9 human rhabdomyosarcoma cells (Homo sapiens, UniProt Q9UKP6); experiment: Human UII Calcium Mobilization Assay; format: cell-based; conditions: average value, FLIPR TETRA, read-out: Human UII Ca^+ Mobilization Average IC50
T3 construct: 6D9: isolated by dilution subcloning of RMS13 cells, ATCC® Number: CRL-2061; host or cells: 6D9 human rhabdomyosarcoma cells (subclone of RMS13)
T3 sequence (Q9UKP6 1-389): T2 sequence (Q9UKP6 1-389)
Summary of the method: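 FLIPR calcium responses were recorded for 4 minutes after room-temperature addition of test antagonist and U-II, in dye-loaded human 6D9 cells (37° C, 45 min; HBSS/HEPES with probenecid 1.25 mM). Compounds serially diluted in HBSS/HEPES, up to 0.1% DMSO; curves gave IC50 and EC50.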

Q: Which IC50 [1] does the source give for `COc1ccc([C@@H](CCCNC(=O)c2cc(C)on2)N2C(=O)c3cccc(N4CCN([C@H](C)c5ccccc5)CC4)c3C2=O)cc1OC` [Cpd 159, (R)-5-methyl-isoxazole-3-carboxylic acid (4-(3,4-dimethoxy-phenyl)-4-{1,3-dioxo-4-[4-(1R)-(1-phenyl-ethyl)-piperazin-1-yl]-1,3-dihydro-isoindol-2-yl}-butyl)-amide] here?
A: Its IC50 is 0.034 µM.

Q: And the Ki [2]?
A: Its Ki is 0.15 µM.

Q: What about the IC50 [3] of the same compound?
A: The IC50 was 0.75 µM.

Q: For `COc1ccc([C@@H](CCCNC(=O)c2ccnnc2)N2C(=O)c3cccc(N4CCN([C@H](C)c5ccccc5)CC4)c3C2=O)cc1OC` [Cpd 160, (R)-pyridazine-4-carboxylic acid (4-(3,4-dimethoxy-phenyl)-4-{1,3-dioxo-4-[4-(1R)-(1-phenyl-ethyl)-piperazin-1-yl]-1,3-dihydro-isoindol-2-yl}-butyl)-amide], which IC50 [1] is on record?
A: Its IC50 is 0.012 µM.

Q: And the Ki [2]?
A: Its Ki is 0.14 µM.

Q: And the IC50 [3]?
A: The IC50 was 0.4 µM.

Q: Which results are given for `COc1ccc([C@@H](CCCNC(=O)c2nccn2C)N2C(=O)c3cccc(N4CCN([C@H](C)c5ccccc5)CC4)c3C2=O)cc1OC` [Cpd 161, (R)-1-methyl-1H-imidazole-2-carboxylic acid (4-(3,4-dimethoxy-phenyl)-4-{1,3-dioxo-4-[4-(1R)-(1-phenyl-ethyl)-piperazin-1-yl]-1,3-dihydro-isoindol-2-yl}-butyl)-amide]?
A: IC50 [1]: 0.019 µM; Ki [2]: 0.12 µM; IC50 [3]: 0.63 µM

Q: Which results are given for `COc1ccc([C@@H](CCCNC(=O)c2cc(C)c(C)o2)N2C(=O)c3cccc(N4CCN([C@H](C)c5ccccc5)CC4)c3C2=O)cc1OC` [Cpd 162, (R)-4,5-dimethyl-furan-2-carboxylic acid (4-(3,4-dimethoxy-phenyl)-4-{1,3-dioxo-4-[4-(1R)-(1-phenyl-ethyl)-piperazin-1-yl]-1,3-dihydro-isoindol-2-yl}-butyl)-amide]?
A: IC50 [1]: 0.035 µM; Ki [2]: 0.17 µM; IC50 [3]: 0.43 µM

Q: What does the source list for `COc1ccc([C@@H](CCCNC(=O)c2cscn2)N2C(=O)c3cccc(N4CCN([C@H](C)c5ccccc5)CC4)c3C2=O)cc1OC` [Cpd 163, (R)-thiazole-4-carboxylic acid (4-(3,4-dimethoxy-phenyl)-4-{1,3-dioxo-4-[4-(1R)-(1-phenyl-ethyl)-piperazin-1-yl]-1,3-dihydro-isoindol-2-yl}-butyl)-amide]?
A: IC50 [1]: 0.015 µM; Ki [2]: 0.095 µM; IC50 [3]: 0.5 µM

Q: `COc1ccc([C@@H](CCCNC(=O)c2c(C)noc2C)N2C(=O)c3cccc(N4CCN([C@H](C)c5ccccc5)CC4)c3C2=O)cc1OC` [Cpd 164, (R)-3,5-dimethyl-isoxazole-4-carboxylic acid (4-(3,4-dimethoxy-phenyl)-4-{1,3-dioxo-4-[4-(1R)-(1-phenyl-ethyl)-piperazin-1-yl]-1,3-dihydro-isoindol-2-yl}-butyl)-amide] was tested. Which IC50 [1] did it give?
A: The IC50 was 0.013 µM.

Q: And the Ki [2]?
A: Its Ki is 0.1 µM.

Q: And the IC50 [3]?
A: Its IC50 is 0.3 µM.

Q: What does the source list for `COc1ccc([C@@H](CCCNC2=CCCN2)N2C(=O)c3cccc(N4CCN([C@H](C)c5ccccc5)CC4)c3C2=O)cc1OC` [Cpd 165, (R)-2-[4-(4,5-dihydro-1H-pyrrol-2-ylamino)-1-(3,4-dimethoxy-phenyl)-butyl]-4-[4-(1R)-(1-phenyl-ethyl)-piperazin-1-yl]-isoindole-1,3-dione]?
A: IC50 [1]: 0.018 µM; Ki [2]: 0.35 µM; IC50 [3]: 1.1 µM

Q: For `COc1ccc([C@@H](CCCNC(C)=N)N2C(=O)c3cccc(N4CCN([C@H](C)c5ccccc5)CC4)c3C2=O)cc1OC` [Cpd 166, (R)-N-(4-(3,4-dimethoxy-phenyl)-4-{1,3-dioxo-4-[4-(1R)-(1-phenyl-ethyl)-piperazin-1-yl]-1,3-dihydro-isoindol-2-yl}-butyl)-acetamidine], which IC50 [1] is on record?
A: Its IC50 is 0.026 µM.

Q: What about the Ki [2] of the same compound?
A: The Ki was 0.51 µM.

Q: And the IC50 [3]?
A: Its IC50 is 2.6 µM.

Q: Which results are given for `COc1ccc([C@@H](CCCNS(=O)(=O)c2cccs2)N2C(=O)c3cccc(N4CCNCC4)c3C2=O)cc1OC` [Cpd 167, (R)-thiophene-2-sulfonic acid [4-(3,4-dimethoxy-phenyl)-4-(1,3-dioxo-4-piperazin-1-yl-1,3-dihydro-isoindol-2-yl)-butyl]-amide]?
A: IC50 [1]: 0.04 µM; Ki ([2]; read-out: Human UII Average Binding Ki, average value, (^125I)-U-II binding to human skeletal muscle myoblasts (HSMM), 25° C., 3 h): 0.15 µM; IC50 [3]: 0.5 µM
